Laboratory results taken from ChEMBL document CHEMBL1221293, “New effective inhibitors of the Abelson kinase” (Bioorg Med Chem, 2010).

Target: Tyrosine-protein kinase ABL1 (Homo sapiens, UniProt P00519)
Sequence (P00519 whole entry): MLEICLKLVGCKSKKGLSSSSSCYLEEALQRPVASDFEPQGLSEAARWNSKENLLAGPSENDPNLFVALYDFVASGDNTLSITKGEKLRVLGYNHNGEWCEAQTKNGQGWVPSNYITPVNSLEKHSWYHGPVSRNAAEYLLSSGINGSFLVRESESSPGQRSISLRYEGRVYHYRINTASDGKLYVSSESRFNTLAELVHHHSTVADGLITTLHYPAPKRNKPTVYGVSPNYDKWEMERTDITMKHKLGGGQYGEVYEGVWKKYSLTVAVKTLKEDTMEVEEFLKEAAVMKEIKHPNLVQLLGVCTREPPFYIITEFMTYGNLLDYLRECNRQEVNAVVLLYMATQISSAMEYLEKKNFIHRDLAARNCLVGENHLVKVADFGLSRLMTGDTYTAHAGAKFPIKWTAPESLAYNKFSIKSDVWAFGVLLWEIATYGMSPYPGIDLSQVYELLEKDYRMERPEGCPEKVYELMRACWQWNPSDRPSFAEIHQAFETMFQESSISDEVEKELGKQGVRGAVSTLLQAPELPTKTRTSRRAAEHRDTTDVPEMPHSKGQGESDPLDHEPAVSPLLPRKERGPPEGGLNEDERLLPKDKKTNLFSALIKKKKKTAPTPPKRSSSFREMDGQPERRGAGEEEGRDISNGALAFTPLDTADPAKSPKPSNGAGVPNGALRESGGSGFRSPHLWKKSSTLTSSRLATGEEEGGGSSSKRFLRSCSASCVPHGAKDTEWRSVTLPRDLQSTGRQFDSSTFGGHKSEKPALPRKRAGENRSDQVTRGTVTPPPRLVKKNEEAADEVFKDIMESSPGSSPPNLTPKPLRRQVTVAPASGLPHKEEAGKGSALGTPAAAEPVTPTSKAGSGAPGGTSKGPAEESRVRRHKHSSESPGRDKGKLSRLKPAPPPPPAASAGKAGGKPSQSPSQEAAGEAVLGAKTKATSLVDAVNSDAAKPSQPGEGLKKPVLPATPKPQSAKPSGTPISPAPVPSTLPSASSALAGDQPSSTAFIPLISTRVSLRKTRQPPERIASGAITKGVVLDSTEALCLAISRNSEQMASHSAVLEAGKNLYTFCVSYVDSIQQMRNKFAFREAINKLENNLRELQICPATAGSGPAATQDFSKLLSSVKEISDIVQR
Description: Inhibition of recombinant c-Abl after 30 mins

Ki [nM] | Compound
0.02 | Cn1c(=O)c(-c2c(Cl)cccc2Cl)cc2cnc(Nc3cccc(NC(=O)CN)c3)nc21
8 | Cn1c(=O)c(-c2c(Cl)cccc2Cl)cc2cnc(NCc3cccc(N)c3)nc21
60 | Cn1c(=O)c(-c2ccccc2Cl)cc2cnc(NCc3cccc(N)c3)nc21
2000 | Cn1c(=O)c(-c2ccccc2)cc2cnc(NCc3cccc(N)c3)nc21
40 | Cn1c(=O)c(-c2c(F)cccc2F)cc2cnc(NCc3cccc(N)c3)nc21
40 | Cn1c(=O)c(-c2ccccc2Br)cc2cnc(NCc3cccc(N)c3)nc21
70 | CSc1cccc(CNc2ncc3cc(-c4c(Cl)cccc4Cl)c(=O)n(C)c3n2)c1
900 | CCCCCCNc1cccc(CNc2ncc3cc(-c4c(Cl)cccc4Cl)c(=O)n(C)c3n2)c1
20 | Cn1c(=O)c(-c2c(Cl)cccc2Cl)cc2cnc(NCc3cccc(NC(=O)CN)c3)nc21
20 | Cn1c(=O)c(-c2c(Cl)cccc2Cl)cc2cnc(NCc3cccc(C(=O)CCCC[C@@H]4SC[C@@H]5NC(=O)N[C@@H]54)c3)nc21
